In the NIST ThermoML archive (doi:10.1021/je050414d):

Test: xn = mol fraction of the nth substance listed
Settings: 101 kPa, Liquid; for viscosity: Capillary tube (Ostwald / Ubbelohde) method

CCOC(=O)OCC [diethyl carbonate] + CC(C)O
Settings | mass density [kg/m3] | viscosity [mPa·s]
293.15 K, x1 = 0.1015 | 812.95 | 1.586
293.15 K, x1 = 0.1993 | 837.12 | 1.252
293.15 K, x1 = 0.3027 | 861.52 | 1.073
293.15 K, x1 = 0.4029 | 880.88 | 0.946
293.15 K, x1 = 0.5018 | 901.57 | 0.865
293.15 K, x1 = 0.5905 | 914.48 | 0.827
293.15 K, x1 = 0.7267 | 936.22 | 0.791
293.15 K, x1 = 0.8053 | 947.93 | 0.781
293.15 K, x1 = 0.8494 | 954.32 | 0.782
293.15 K, x1 = 1 | 975 | 0.8
298.15 K, x1 = 0.1015 | 808.12 | 1.393
298.15 K, x1 = 0.1993 | 831.98 | 1.119
298.15 K, x1 = 0.3027 | 855.03 | 0.964
298.15 K, x1 = 0.4029 | 875.34 | 0.86
298.15 K, x1 = 0.5018 | 893.55 | 0.791
298.15 K, x1 = 0.5905 | 908.68 | 0.76
298.15 K, x1 = 0.7267 | 930.3 | 0.731
298.15 K, x1 = 0.8053 | 941.94 | 0.726
298.15 K, x1 = 0.8494 | 948.31 | 0.726
298.15 K, x1 = 1 | 968.97 | 0.746
303.15 K, x1 = 0.1015 | 803.27 | 1.223
303.15 K, x1 = 0.1993 | 826.84 | 0.996
303.15 K, x1 = 0.3027 | 849.57 | 0.867
303.15 K, x1 = 0.4029 | 869.48 | 0.782
303.15 K, x1 = 0.5018 | 887.62 | 0.726
303.15 K, x1 = 0.5905 | 902.71 | 0.7
303.15 K, x1 = 0.7267 | 924.09 | 0.677
303.15 K, x1 = 0.8053 | 935.6 | 0.674
303.15 K, x1 = 0.8494 | 941.89 | 0.676
303.15 K, x1 = 1 | 962.39 | 0.695
313.15 K, x1 = 0.1015 | 793.12 | 0.964
313.15 K, x1 = 0.1993 | 816.46 | 0.806
313.15 K, x1 = 0.3027 | 839.13 | 0.716
313.15 K, x1 = 0.4029 | 859.2 | 0.657
313.15 K, x1 = 0.5018 | 877.18 | 0.618
313.15 K, x1 = 0.5905 | 892.18 | 0.601
313.15 K, x1 = 0.7267 | 913.63 | 0.588
313.15 K, x1 = 0.8053 | 925.25 | 0.588
313.15 K, x1 = 0.8494 | 931.59 | 0.59
313.15 K, x1 = 1 | 952.32 | 0.61
323.15 K, x1 = 0.1015 | 781.71 | 0.78
323.15 K, x1 = 0.1993 | 804.58 | 0.668
323.15 K, x1 = 0.3027 | 826.95 | 0.604
323.15 K, x1 = 0.4029 | 846.73 | 0.562
323.15 K, x1 = 0.5018 | 864.62 | 0.535
323.15 K, x1 = 0.5905 | 879.49 | 0.524
323.15 K, x1 = 0.7267 | 900.94 | 0.517
323.15 K, x1 = 0.8053 | 912.58 | 0.519
323.15 K, x1 = 0.8494 | 918.93 | 0.521
323.15 K, x1 = 1 | 939.78 | 0.541
333.15 K, x1 = 0.1015 | 771.12 | 0.637
333.15 K, x1 = 0.1993 | 793.64 | 0.559
333.15 K, x1 = 0.3027 | 815.77 | 0.515
333.15 K, x1 = 0.4029 | 835.41 | 0.485
333.15 K, x1 = 0.5018 | 853.29 | 0.467
333.15 K, x1 = 0.5905 | 868.1 | 0.46
333.15 K, x1 = 0.7267 | 889.56 | 0.458
333.15 K, x1 = 0.8053 | 901.29 | 0.461
333.15 K, x1 = 0.8494 | 907.67 | 0.464
333.15 K, x1 = 1 | 928.69 | 0.483
343.15 K, x1 = 0.1015 | 760.13 | 0.523
343.15 K, x1 = 0.1993 | 782.3 | 0.47
343.15 K, x1 = 0.3027 | 804.17 | 0.44
343.15 K, x1 = 0.4029 | 823.53 | 0.421
343.15 K, x1 = 0.5018 | 841.14 | 0.41
343.15 K, x1 = 0.5905 | 855.92 | 0.407
343.15 K, x1 = 0.7267 | 877.3 | 0.409
343.15 K, x1 = 0.8053 | 888.96 | 0.413
343.15 K, x1 = 0.8494 | 895.36 | 0.417
343.15 K, x1 = 1 | 916.33 | 0.435

CCOC(=O)OCC [diethyl carbonate] + CO
Settings | mass density [kg/m3] | viscosity [mPa·s]
293.15 K, x1 = 0.1045 | 839.93 | 0.599
293.15 K, x1 = 0.2128 | 874.69 | 0.622
293.15 K, x1 = 0.2835 | 892.08 | 0.634
293.15 K, x1 = 0.4025 | 915.12 | 0.655
293.15 K, x1 = 0.5161 | 932.04 | 0.679
293.15 K, x1 = 0.6057 | 942.83 | 0.7
293.15 K, x1 = 0.7015 | 952.67 | 0.723
293.15 K, x1 = 0.8 | 961.18 | 0.747
293.15 K, x1 = 0.8845 | 967.44 | 0.772
293.15 K, x1 = 1 | 975 | 0.801
298.15 K, x1 = 0.1045 | 834.64 | 0.567
298.15 K, x1 = 0.2128 | 869.33 | 0.588
298.15 K, x1 = 0.2835 | 886.65 | 0.598
298.15 K, x1 = 0.4025 | 909.56 | 0.616
298.15 K, x1 = 0.5161 | 926.35 | 0.637
298.15 K, x1 = 0.6057 | 937.11 | 0.656
298.15 K, x1 = 0.7015 | 946.89 | 0.677
298.15 K, x1 = 0.8 | 955.37 | 0.696
298.15 K, x1 = 0.8845 | 961.65 | 0.715
298.15 K, x1 = 1 | 968.97 | 0.746
303.15 K, x1 = 0.1045 | 829.8 | 0.527
303.15 K, x1 = 0.2128 | 864.12 | 0.546
303.15 K, x1 = 0.2835 | 881.42 | 0.556
303.15 K, x1 = 0.4025 | 904.25 | 0.573
303.15 K, x1 = 0.5161 | 921 | 0.593
303.15 K, x1 = 0.6057 | 931.74 | 0.611
303.15 K, x1 = 0.7015 | 941.49 | 0.63
303.15 K, x1 = 0.8 | 949.97 | 0.651
303.15 K, x1 = 0.8845 | 956.23 | 0.671
303.15 K, x1 = 1 | 962.39 | 0.695
313.15 K, x1 = 0.1045 | 819.68 | 0.462
313.15 K, x1 = 0.2128 | 853.64 | 0.48
313.15 K, x1 = 0.2835 | 870.71 | 0.49
313.15 K, x1 = 0.4025 | 893.3 | 0.503
313.15 K, x1 = 0.5161 | 909.94 | 0.521
313.15 K, x1 = 0.6057 | 920.59 | 0.537
313.15 K, x1 = 0.7015 | 930.26 | 0.556
313.15 K, x1 = 0.8 | 938.67 | 0.572
313.15 K, x1 = 0.8845 | 944.93 | 0.587
313.15 K, x1 = 1 | 952.32 | 0.61
323.15 K, x1 = 0.1045 | 809.45 | 0.408
323.15 K, x1 = 0.2128 | 843 | 0.424
323.15 K, x1 = 0.2835 | 859.86 | 0.432
323.15 K, x1 = 0.4025 | 882.25 | 0.444
323.15 K, x1 = 0.5161 | 898.72 | 0.461
323.15 K, x1 = 0.6057 | 909.28 | 0.477
323.15 K, x1 = 0.7015 | 918.88 | 0.493
323.15 K, x1 = 0.8 | 927.24 | 0.507
323.15 K, x1 = 0.8845 | 933.43 | 0.523
323.15 K, x1 = 1 | 939.78 | 0.541
333.15 K, x1 = 0.1045 | 796.31 | 0.363
333.15 K, x1 = 0.2128 | 830.09 | 0.376
333.15 K, x1 = 0.2835 | 847.11 | 0.384
333.15 K, x1 = 0.4025 | 869.76 | 0.397
333.15 K, x1 = 0.5161 | 886.44 | 0.41
333.15 K, x1 = 0.6057 | 897.15 | 0.426
333.15 K, x1 = 0.7015 | 906.9 | 0.441
333.15 K, x1 = 0.8 | 915.39 | 0.454
333.15 K, x1 = 0.8845 | 921.71 | 0.466
333.15 K, x1 = 1 | 928.69 | 0.483
